Data taken from patent US12098136B2, “Crystalline forms of lenalidomide” (BIOCON LIMITED, priority 2017, dated 2024).

How the values were obtained:
[1] = Hygroscopicity / weight change; assay type: physicochemical
Thermal stability (neat) = assay type: physicochemical
Mouse = details: in vivo; cited from earlier work

Nc1cccc2c1CN(C1CCC(=O)NC1=O)C2=O (stereo not shown) [Lenalidomide-Resorcinol co-crystal]
weight change [1]: does not exhibit significant weight change | Hygroscopicity ([1]; compared with Lenalidomide hemihydrate): lesser or comparable | thermally stable up to (temperature) (Thermal stability (neat)): ≥ 80 °C

O=C1NS(=O)(=O)c2ccccc21 [Saccharin]
Acute oral toxicity (LD50) (Mouse): 17000 mg/kg
